Measurements reported in patent publication US7858620B2, “Cyanoisoquinoline” (H. Lundbeck A/S, priority 2007, dated 2010).

Target: T1, PDE10A enzyme (Homo sapiens, UniProt Q9Y233)
T1 construct: made in house; host or cells: E. coli BL21(DE3)
Test: PDE10A inhibition assay, SPA
Format: biochemical
Settings: column head 2,1334003; unit inferred, nM
Description: Active PDE10A enzyme is prepared in a number of ways for use in PDE assays (Loughney, K. et al. Gene 1999, 234, 109-117; Fujishige, K. et al. Eur J Biochem. 1999, 266, 1118-1127 and Soderling, S. et al. Proc. Natl. Acad. Sci. 1999, 96, 7071-7076). PDE10A can be expressed as full-length proteins or as truncated proteins, as long as they express the catalytic domain. PDE10A can be prepared in different cell types, for example insect cells or E. coli. An example of a method to obtain catalytically active PDE10A is as follows: The catalytic domain of human PDE10A (amino acids 440-779 from the sequence with accession number NP 006652) is amplified from total human brain total RNA by standard RT-PCR and is cloned into the BamH1 and Xho1 sites of the pET28a vector (Novagen). Expression in coli is performed according to standard protocols. Briefly, the expression plasmids are transformed into the BL21(DE3) E. coli strain, and 50 mL cultures inoculated with the cells allowed to grow to an OD600 of 0.4-0.6 before protein expression is induced with 0.5 mM IPTG. Following induction, the cells are incubated overnight at room temperature, after which the cells are collected by centrifugation. Cells expressing PDE10A are resuspended in 12 mL (50 mM TRIS-HCl-pH8.0, 1 mM MgCl2 and protease inhibitors). The cells are lysed by sonication, and after all cells are lysed, TritonX100 is added according to Novagen protocols.
PDE10A and Pde3A assays can for example be performed as follows: PDE10A and Pde3A assays are performed in 60 uL samples containing a fixed amount of the relevant PDE enzyme (sufficient to convert 20-25% of the cyclic nucleotide substrate), a buffer (50 mM HEPES7.6; 10 mM MgCl2; 0.02% Tween20), 0.1 mg/ml BSA, 225 pCi of ^3H-labelled cyclic nucleotide substrate, tritium labeled cAMP to a final concentration of 5 nM and varying amounts of inhibitors. Reactions are initiated by addition of the cyclic nucleotide substrate, and reactions are allowed to proceed for one hr at room temperature before being terminated through mixing with 15 uL 8 mg/mL yttrium silicate SPA beads (Amersham). The beads are allowed to settle for one hr in the dark before the plates are counted in a Wallac 1450 Microbeta counter. The measured signal can be converted to activity relative to an uninhibited control (100%) and IC50 values can be calculated using the Xlfit extension to EXCEL.

T1 sequence (Q9Y233 716-1055): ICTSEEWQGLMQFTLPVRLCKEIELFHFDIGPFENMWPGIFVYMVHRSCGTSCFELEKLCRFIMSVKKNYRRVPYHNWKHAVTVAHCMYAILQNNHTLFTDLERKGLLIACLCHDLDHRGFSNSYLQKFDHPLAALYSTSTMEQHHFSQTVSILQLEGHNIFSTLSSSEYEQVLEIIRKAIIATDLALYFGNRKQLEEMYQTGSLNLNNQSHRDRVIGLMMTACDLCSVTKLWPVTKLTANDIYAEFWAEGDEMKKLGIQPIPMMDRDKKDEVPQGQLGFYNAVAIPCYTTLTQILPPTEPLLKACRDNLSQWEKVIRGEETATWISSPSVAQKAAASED

| SMILES | IC50 [nM] |
| --- | --- |
| COc1cccc(C2CN(c3ncc(C#N)c4cc(OC)c(OC)cc34)CCN2)c1 (single isomer, unassigned; (+)) [Compound 23, (+)-6,7-Dimethoxy-1-[3-(3-methoxy-phenyl)-piperazin-1-yl]-isoquinoline-4-carbonitrile] | 1300 |
| COc1cccc(C2CN(c3ncc(C#N)c4cc(OC)c(OC)cc34)CCN2)c1 (single isomer, unassigned; (-)) [Compound 24, (−)-6,7-Dimethoxy-1-[3-(3-methoxy-phenyl)-piperazin-1-yl]-isoquinoline-4-carbonitrile] | 27 |
| COc1cc2c(C#N)cnc(N3CCNC(c4ccc(F)cc4)C3)c2cc1OC (stereo not shown) [Compound 1, 1-[3-(4-Fluoro-phenyl)-piperazin-1-yl]-6,7-dimethoxy-isoquinoline-4-carbonitrile] | 80 |
| COc1cccc(C2CN(c3ncc(C#N)c4cc(OC)c(OC)cc34)CCN2)c1 (stereo not shown) [Compound 2, 6,7-Dimethoxy-1-[3-(3-methoxy-phenyl)-piperazin-1-yl]-isoquinoline-4-carbonitrile] | 320 |
| COc1cccc(C2CN(c3nc(C)c(C#N)c4cc(OC)c(OC)cc34)CCN2)c1 (stereo not shown) [Compound 3, 6,7-Dimethoxy-1-[3-(3-methoxy-phenyl)-piperazin-1-yl]-3-methyl-isoquinoline-4-carbonitrile] | 240 |
| COc1cc2c(C#N)cnc(N3CCNC(c4cccc5ccccc45)C3)c2cc1OC (stereo not shown) [Compound 4, 6,7-Dimethoxy-1-(3-naphthalen-1-yl-piperazin-1-yl)-isoquinoline-4-carbonitrile] | 78 |
| COc1ccc(C2CN(c3ncc(C#N)c4cc(OC)c(OC)cc34)CCN2)cc1 (stereo not shown) [Compound 5, 6,7-Dimethoxy-1-[3-(4-methoxy-phenyl)-piperazin-1-yl]-isoquinoline-4-carbonitrile] | 54 |
| COc1cc2c(C#N)cnc(N3CCNC(c4ccccc4OC)C3)c2cc1OC (stereo not shown) [Compound 6, 6,7-Dimethoxy-1-[3-(2-methoxy-phenyl)-piperazin-1-yl]-isoquinoline-4-carbonitrile] | 420 |
| COc1cc2c(C#N)cnc(N3CCNC(c4ccc(N(C)C)cc4)C3)c2cc1OC (stereo not shown) [Compound 7, 1-[3-(4-Dimethylamino-phenyl)-piperazin-1-yl]-6,7-dimethoxy-isoquinoline-4-carbonitrile] | 76 |
| COc1cc2c(C#N)cnc(N3CCNC(c4ccc5c(c4)OCO5)C3)c2cc1OC (stereo not shown) [Compound 8, 1-(3-Benzo[1,3]dioxol-5-yl-piperazin-1-yl)-6,7-dimethoxy-isoquinoline-4-carbonitrile] | 81 |
| COc1cc2c(C#N)cnc(N3CCNC(c4cccc([N+](=O)[O-])c4)C3)c2cc1OC (stereo not shown) [Compound 9, 6,7-Dimethoxy-1-[3-(3-nitro-phenyl)-piperazin-1-yl]-isoquinoline-4-carbonitrile] | 120 |
| COc1cc2c(C#N)cnc(N3CCNC(c4ccc5ccccc5c4)C3)c2cc1OC (stereo not shown) [Compound 10, 6,7-Dimethoxy-1-(3-naphthalen-2-yl-piperazin-1-yl)-isoquinoline-4-carbonitrile] | 73 |
| COc1cc(OC)cc(C2CN(c3ncc(C#N)c4cc(OC)c(OC)cc34)CCN2)c1 (stereo not shown) [Compound 11, 1-[3-(3,5-Dimethoxy-phenyl)-piperazin-1-yl]-6,7-dimethoxy-isoquinoline-4-carbonitrile] | 41 |
| COc1ccc(OC)c(C2CN(c3ncc(C#N)c4cc(OC)c(OC)cc34)CCN2)c1 (stereo not shown) [Compound 12, 1-[3-(2,5-Dimethoxy-phenyl)-piperazin-1-yl]-6,7-dimethoxy-isoquinoline-4-carbonitrile] | 42 |
| COc1cc2c(C#N)cnc(N3CCNC(c4ccc(C(F)(F)F)cc4)C3)c2cc1OC (stereo not shown) [Compound 13, 6,7-Dimethoxy-1-[3-(4-trifluoromethyl-phenyl)-piperazin-1-yl]-isoquinoline-4-carbonitrile] | 160 |
| COc1cc2c(C#N)cnc(N3CCNC(c4cc(Cl)ccc4Cl)C3)c2cc1OC (stereo not shown) [Compound 14, 1-[3-(2,5-Dichloro-phenyl)-piperazin-1-yl]-6,7-dimethoxy-isoquinoline-4-carbonitrile] | 650 |
